Tested on: Pseudomonas aeruginosa strain
Assay: embedding of 1 ml and 0.1 ml samples of mother solution in PCA medium
Format: cell-based
Settings: for bacteria count in embedding: PCA medium 48 hours, strain at 1.9 10^8, bromoform 60 mg/l
Description: In order to test that the antibacterial and/or antifungal action is in fact related to a group of halogenated molecules of low molecular weight, an aqueous solution of 60 mg/l bromoform was prepared and its action compared with that of a permeate of nanofiltration at the threshold of 400 Daltons which therefore only contained micromolecules, in particular halogenated molecules. After embedding 1 ml and 0.1 ml samples in a PCA medium for 48 hours from a mother solution containing the product to be tested and the Pseudomonas aeruginosa strain at a concentration of 1.9 10^8, the results in the following table were obtained.
In this table, and in the following tables, “>>” means that bacteria developed and could not be counted.
Also, the microfiltration permeate was fractionated by subjecting it to ultrafiltration (uF) or nanofiltration (nF), and the antibacterial action on the Pseudomonas strain was measured for each fraction and at different times in accordance with the protocol described below. The following results were obtained:
Other tests were conducted to measure the influence of pH on the extract's activity and its ageing. Acidification was carried out during the so-called acidification stage of the method for obtaining the extract of the invention, using citric acid.

BrC(Br)Br [Bromoform, bromoform]
bacteria count in embedding (0.1 ml embedding): >>
bacteria count in embedding (1 ml embedding): >>
action against the Pseudomonas aeruginosa strain (bromoform at 1.5 times the concentration in the extract, permeate on second day after production): no action

Source: US6346252B1, “Method of obtaining an antibacterial and/or antifungal extract from the algae, bonnemaisoniacea” (Algues et Mer (S.A.R.L.), priority 1996, dated 2002)
